According to patent US7341985B2, “2-Hydroxy-3-alkoxypropyl sulfides, sulfones, and sulfoxides: new surface active agents” (Air Products and Chemicals, Inc., priority 2004, dated 2008):

What was measured:
Format in all cases: physicochemical
[1] = Equilibrium surface tension (Kruss K-12 tensiometer, Wilhelmy plate); conditions: 25±1° C., average of 10 measurements over 10 minutes
Experimental: Equilibrium surface tensions were determined for the compounds prepared in Examples 1-6, using a Kruss K-12 tensiometer with a platinum Wilhelmy plate, maintaining the temperature at 25±1° C. by means of a constant temperature circulating bath. The results, reported in Table 2, are averages of 10 measurements over a 10-minute period, and have a standard deviation of less than 0.01 dyne/cm.

Water solubility = experiment: Water solubility
[2] = Ross-Miles foam test (foam height and stability); conditions: 0.1 wt % solution
Experimental: Foam height and stability (time to reach zero foam) were measured by the Ross-Miles foam test, using 0.1 wt % solutions of the surfactants.

[3] = Dynamic surface tension (Kruss BP-2 Bubble Pressure Tensiometer); conditions: for Dynamic surface tension reduction of an aqueous solution (in words): summary of Table 4
Experimental: Dynamic surface tensions were determined for the compounds prepared in Examples 1-5, at 0.1 and 1.0 wt % levels, using a Kruss BP-2 Bubble Pressure Tensiometer.

[4] = 0.1 wt %, 1 b/s (bubbles/second)

Equilibrium Surface Tension ([1]; 0.1 wt % in water) [dynes/cm] | Equilibrium Surface Tension ([1]; 1.0 wt % in water) [dynes/cm] | Water Solubility (Water solubility) [wt %] | Initial Foam Height [2] [cm] | Time to 0 foam [2] [s] | Final Foam Height at 300 Sec [2] [cm] | Dynamic surface tension [3, 4] [dynes/cm] | Dynamic surface tension ([3]; 0.1 wt %, 5 b/s) [dynes/cm] | Dynamic surface tension ([3]; 0.1 wt %, 20 b/s) [dynes/cm] | Dynamic surface tension ([3]; 1.0 wt %, 1 b/s) [dynes/cm] | Dynamic surface tension ([3]; 1.0 wt %, 5 b/s) [dynes/cm] | Dynamic surface tension ([3]; 1.0 wt %, 20 b/s) [dynes/cm] | Dynamic surface tension reduction of an aqueous solution (in words) [3] | Structure (SMILES)
30.7 | 29.3 | <0.1 | 0.6 | 6 | 0 | 35 | 39 | 45 | 30 | 30 | 32 | strong | CCCCC(CC)COCC(O)CSCCO (stereo not drawn) [MEEHGE, 2-hydroxyethyl-2′-hydroxy-3′-(2-ethylhexyloxy)propyl sulfide]
28.3 | 26.7 | <0.1 | 1.0 | 6 | 0 | 37 | 47 | 53 | 27 | 28 | 30 | strong | CCCCC(CC)COCC(O)CSCC(O)CO (stereo not drawn) [TGEHGE, 2,3-dihydroxypropyl-2′-hydroxy-3′-(2-ethylhexyloxy)propyl sulfide]

Structure (SMILES) | Equilibrium Surface Tension ([1]; 0.1 wt % in water) [dynes/cm] | Equilibrium Surface Tension ([1]; 1.0 wt % in water) [dynes/cm] | Water Solubility (Water solubility) [wt %] | Initial Foam Height [2] [cm] | Time to 0 foam [2] [s] | Final Foam Height at 300 Sec [2] [cm] | Dynamic surface tension [3, 4] [dynes/cm] | Dynamic surface tension ([3]; 0.1 wt %, 5 b/s) [dynes/cm] | Dynamic surface tension ([3]; 0.1 wt %, 20 b/s) [dynes/cm] | Dynamic surface tension ([3]; 1.0 wt %, 1 b/s) [dynes/cm] | Dynamic surface tension ([3]; 1.0 wt %, 5 b/s) [dynes/cm] | Dynamic surface tension ([3]; 1.0 wt %, 20 b/s) [dynes/cm] | Dynamic surface tension reduction of an aqueous solution (in words) [3]
CCCCOCC(O)CSCCO (stereo not drawn) [MEBGE, 2-hydroxyethyl-2′-hydroxy-3′-butoxypropyl sulfide] | 37.1 | 32.6 | <0.1 | 1.2 | 2 | 0 | 59 | 61 | 65 | 43 | 44 | 44 | moderate
